Laboratory results: patent US12351580B2, “NLRP3 modulators” (Innate Tumor Immunity, Inc., priority 2017, dated 2025)

Tests used:
TLR7 = biological target: T1, TLR7 (Homo sapiens, UniProt Q9NYK1); assay: In vitro human TLR7 binding reporter assay (HEK-Blue, NF-kB/AP1-inducible SEAP); assay type: cell-based; conditions: activity range symbols
T1 construct: host or cells: HEK-Blue cells (human HEK) co-expressing TLR7 and an NF-kB/AP1-inducible SEAP reporter
T1 sequence (Q9NYK1 27-1049): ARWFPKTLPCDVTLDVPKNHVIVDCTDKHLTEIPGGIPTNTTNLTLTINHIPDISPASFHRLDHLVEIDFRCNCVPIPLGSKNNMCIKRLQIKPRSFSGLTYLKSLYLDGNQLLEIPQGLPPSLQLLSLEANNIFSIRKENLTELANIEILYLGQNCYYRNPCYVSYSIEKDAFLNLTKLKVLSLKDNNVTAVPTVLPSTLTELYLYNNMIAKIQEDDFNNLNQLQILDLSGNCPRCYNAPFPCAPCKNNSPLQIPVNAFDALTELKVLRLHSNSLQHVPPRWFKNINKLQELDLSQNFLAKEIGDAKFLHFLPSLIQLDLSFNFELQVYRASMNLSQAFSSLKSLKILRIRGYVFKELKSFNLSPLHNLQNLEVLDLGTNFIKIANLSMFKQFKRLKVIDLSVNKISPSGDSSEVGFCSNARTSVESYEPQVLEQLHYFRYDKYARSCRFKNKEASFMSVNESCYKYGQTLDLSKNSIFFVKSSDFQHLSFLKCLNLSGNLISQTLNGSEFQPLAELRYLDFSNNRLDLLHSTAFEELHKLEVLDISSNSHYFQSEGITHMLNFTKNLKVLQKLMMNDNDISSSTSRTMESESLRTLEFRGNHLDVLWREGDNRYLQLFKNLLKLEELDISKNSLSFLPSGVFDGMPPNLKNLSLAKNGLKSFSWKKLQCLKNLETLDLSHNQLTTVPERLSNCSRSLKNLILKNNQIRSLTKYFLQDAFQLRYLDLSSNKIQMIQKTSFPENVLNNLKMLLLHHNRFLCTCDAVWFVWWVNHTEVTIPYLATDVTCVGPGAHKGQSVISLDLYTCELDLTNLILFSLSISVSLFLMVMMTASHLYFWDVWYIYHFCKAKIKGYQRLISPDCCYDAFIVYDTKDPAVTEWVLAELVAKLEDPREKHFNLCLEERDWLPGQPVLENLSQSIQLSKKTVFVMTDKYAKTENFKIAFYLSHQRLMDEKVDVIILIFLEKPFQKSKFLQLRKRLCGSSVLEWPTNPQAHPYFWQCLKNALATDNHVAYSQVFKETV
In short: (§1)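 Reporter cells are plated at 15,000 per well and rested 24 h. Next day, test compounds or DMSO are dispensed, followed by 18 h incubation at 37 °C, 5% CO2.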

TLR8 = biological target: T2, TLR8 (Homo sapiens, UniProt Q9NR97); assay: In vitro human TLR8 binding reporter assay (HEK-Blue, NF-kB/AP1-inducible SEAP); assay type: cell-based
T2 construct: host or cells: HEK-Blue cells (human HEK) co-expressing TLR8 and an NF-kB/AP1-inducible SEAP reporter
T2 sequence (Q9NR97 27-1041): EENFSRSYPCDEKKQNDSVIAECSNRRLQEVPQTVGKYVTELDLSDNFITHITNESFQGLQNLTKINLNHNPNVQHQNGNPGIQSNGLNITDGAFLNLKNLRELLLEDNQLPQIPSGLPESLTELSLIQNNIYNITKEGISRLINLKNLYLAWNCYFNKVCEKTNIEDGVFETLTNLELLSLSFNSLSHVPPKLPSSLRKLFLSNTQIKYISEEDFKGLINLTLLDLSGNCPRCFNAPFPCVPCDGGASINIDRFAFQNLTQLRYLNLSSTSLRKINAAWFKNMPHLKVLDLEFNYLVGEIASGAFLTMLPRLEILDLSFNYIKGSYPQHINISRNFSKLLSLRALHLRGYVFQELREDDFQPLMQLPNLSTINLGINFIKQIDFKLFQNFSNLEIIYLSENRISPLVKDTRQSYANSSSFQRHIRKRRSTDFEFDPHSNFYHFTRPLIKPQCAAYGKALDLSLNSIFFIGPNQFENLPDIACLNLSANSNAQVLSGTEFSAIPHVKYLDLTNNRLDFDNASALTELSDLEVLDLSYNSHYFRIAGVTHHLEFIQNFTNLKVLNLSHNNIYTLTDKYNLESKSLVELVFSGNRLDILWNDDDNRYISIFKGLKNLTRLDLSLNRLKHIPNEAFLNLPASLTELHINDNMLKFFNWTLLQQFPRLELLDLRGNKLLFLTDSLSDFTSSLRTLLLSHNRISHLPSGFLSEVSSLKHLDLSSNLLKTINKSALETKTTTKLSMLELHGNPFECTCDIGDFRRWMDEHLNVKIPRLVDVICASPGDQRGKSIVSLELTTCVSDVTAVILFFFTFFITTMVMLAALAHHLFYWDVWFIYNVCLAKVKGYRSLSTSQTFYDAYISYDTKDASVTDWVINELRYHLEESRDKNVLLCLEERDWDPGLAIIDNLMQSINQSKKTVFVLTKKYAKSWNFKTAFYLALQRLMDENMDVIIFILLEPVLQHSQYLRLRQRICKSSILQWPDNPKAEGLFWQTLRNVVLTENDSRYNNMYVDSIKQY
In short: as §1

EC50 (TLR7) [µM]	EC50 (TLR8; activity range symbols) [µM]	EC50 (TLR8; numeric bounds) [µM]	SMILES
> 100	> 100		CCN(Cc1nc2c(N)nc3cc(-c4cc[nH]n4)ccc3c2[nH]1)C(=O)c1cnccn1 [Compound 442, N-{[4-amino-7-(1H-pyrazol-3-yl)-1H-imidazo[4,5-c]quinolin-2-yl]methyl}-N-ethylpyrazine-2-carboxamide]
> 100		> 62	CCN(Cc1nc2c(N)nc3cc(-c4cc[nH]n4)ccc3c2[nH]1)C(=O)Cc1ccccc1 [Compound 443, N-{[4-amino-7-(1H-pyrazol-3-yl)-1H-imidazo[4,5-c]quinolin-2-yl]methyl}-N-ethyl-2-phenylacetamide]
> 100	1 to 20		CCN(Cc1nc2c(N)nc3cc(-c4cc[nH]n4)ccc3c2[nH]1)C(=O)CCCc1ccccc1 [Compound 444, N-{[4-amino-7-(1H-pyrazol-3-yl)-1H-imidazo[4,5-c]quinolin-2-yl]methyl}-N-ethyl-4-phenylbutanamide]
> 100		> 62	CCN(Cc1nc2c(N)nc3cc(-c4cc[nH]n4)ccc3c2[nH]1)C(=O)CCC(C)C [Compound 445, N-{[4-amino-7-(1H-pyrazol-3-yl)-1H-imidazo[4,5-c]quinolin-2-yl]methyl}-N-ethyl-4-methylpentanamide]
> 100	> 100		CCN(Cc1nc2c(N)nc3cc(-c4cc[nH]n4)ccc3c2[nH]1)C(=O)c1cccn1C [Compound 446, N-{[4-amino-7-(1H-pyrazol-3-yl)-1H-imidazo[4,5-c]quinolin-2-yl]methyl}-N-ethyl-1-methyl-1H-pyrrole-2-carboxamide]
> 100	1 to 20		CCN(Cc1nc2c(N)nc3cc(-c4cc[nH]n4)ccc3c2[nH]1)C(=O)CCc1ccccc1 [Compound 447, N-{[4-amino-7-(1H-pyrazol-3-yl)-1H-imidazo[4,5-c]quinolin-2-yl]methyl}-N-ethyl-3-phenylpropanamide]
> 100	20 to 100		CCN(Cc1nc2c(N)nc3cc(-c4cc[nH]n4)ccc3c2[nH]1)C(=O)c1ccccc1Cl [Compound 449, N-{[4-amino-7-(1H-pyrazol-3-yl)-1H-imidazo[4,5-c]quinolin-2-yl]methyl}-2-chloro-N-ethylbenzamide]
> 100	> 100		CCN(Cc1nc2c(N)nc3cc(-c4cc[nH]n4)ccc3c2[nH]1)C(=O)c1ccncc1 [Compound 450, N-{[4-amino-7-(1H-pyrazol-3-yl)-1H-imidazo[4,5-c]quinolin-2-yl]methyl}-N-ethylpyridine-4-carboxamide]
> 100	20 to 100		CCN(Cc1nc2c(N)nc3cc(-c4cc[nH]n4)ccc3c2[nH]1)C(=O)c1cn(C)c2ccccc12 [Compound 451, N-{[4-amino-7-(1H-pyrazol-3-yl)-1H-imidazo[4,5-c]quinolin-2-yl]methyl}-N-ethyl-1-methyl-1H-indole-3-carboxamide]
> 100		> 62	CCN(Cc1nc2c(N)nc3cc(-c4cc[nH]n4)ccc3c2[nH]1)C(=O)c1ccc(Cl)cc1 [Compound 452, N-{[4-amino-7-(1H-pyrazol-3-yl)-1H-imidazo[4,5-c]quinolin-2-yl]methyl}-4-chloro-N-ethylbenzamide]
